Molecules are shown by their SMILES. pIC50: −log10 of the molar value. Read-outs that look alike come from different tables or passages of the source.

Broadly, the IC50 is the concentration needed to halve the response being measured. A word on the melting point: it is the temperature of the solid-liquid transition. The pIC50 is the IC50 on a negative log10 scale, so that one unit is a factor of ten.

The target of series [1] is T1, sodium iodide symporter (NIS), iodide uptake in FRTL5 cells (Rattus norvegicus, UniProt Q63008).
T1 construct: endogenous in cells; host or cells: FRTL5 (rat thyroid-derived cells)
T1 sequence (Q63008 1-618): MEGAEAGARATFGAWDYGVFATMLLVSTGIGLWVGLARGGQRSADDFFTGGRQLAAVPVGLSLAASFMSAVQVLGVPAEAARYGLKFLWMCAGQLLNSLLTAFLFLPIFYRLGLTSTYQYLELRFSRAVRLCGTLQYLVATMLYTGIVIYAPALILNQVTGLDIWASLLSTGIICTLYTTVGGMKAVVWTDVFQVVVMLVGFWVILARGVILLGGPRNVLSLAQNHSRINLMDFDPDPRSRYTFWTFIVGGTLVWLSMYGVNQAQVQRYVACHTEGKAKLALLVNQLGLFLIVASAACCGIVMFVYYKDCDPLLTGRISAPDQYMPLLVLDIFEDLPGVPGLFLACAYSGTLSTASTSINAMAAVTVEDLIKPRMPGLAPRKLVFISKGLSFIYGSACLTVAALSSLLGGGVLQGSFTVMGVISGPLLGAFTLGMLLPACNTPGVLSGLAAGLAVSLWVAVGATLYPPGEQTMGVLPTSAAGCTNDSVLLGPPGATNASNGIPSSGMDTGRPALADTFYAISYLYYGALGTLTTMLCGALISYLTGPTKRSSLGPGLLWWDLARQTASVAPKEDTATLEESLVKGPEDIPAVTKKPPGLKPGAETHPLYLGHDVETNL
The series can be described thus: Inhibition of iodide uptake in FRTL5 cells, non radioactive arsenic/cerium assay. Type of series: cell-based. The following applies: for IC50: NaI 10 μM, 1 hour, 20°C, read-out: IC50 (μM), inhibitory activity against iodide uptake in FRTL5 cells. The protocol: Some of the synthesized compounds were evaluated for their ability to inhibit iodide entrapment in FRTL5 cells. The IC50 values were measured in at least […] independent experiments.
The biological activity of each compound was determined in FRTL5 cells, using a non radioactive arsenic/cerium assay as described in F. Waltz et al., Anal. Biochem., 2012, 396, 91-95. Compound potency was expressed as IC50, the concentration of compound necessary to achieve 50% inhibition of iodide uptake. Briefly, to FRTL5 cells at 70-90% confluence was added compound (200 μM, 10 μM, 0.5 μM, 25 nM, 1.2 nM, 60 pM, […], and 0.15 pM final), followed by NaI (10 μM final). After 1 hour incubation at 20±1° C., supernatant was removed and the cells were immediately assayed for iodide content using the modified As/Ce Sandell-Kolthoff reaction. NaClO4 was tested in each microplate as assay controls. The IC50 values of all compounds were measured least thrice independently.
Stock solutions of tested compounds were prepared in DMSO (20 mM) and that of NaClO4 in water (20 mM). These stock solutions were stored at 4° C. for up to 2 months. Sample dilutions: the day of the assay, a daughter plate (clear flat-bottomed 96-well polystyrene microplates, Costar 9017) was prepared from 20 mM stock solutions. NaClO4 (column 2) and DHPM samples (columns 4 to 11) were diluted at 10× the final concentration in uptake buffer.
FRTL5 cells were cultured as described in F. S. Ambesi-Impiombato et al., Proc. Natl. Acad. Sci. USA, 1980, 77, 3455-3459. Briefly, FRTL5 cells were cultured in Coon's modified F12 medium supplemented with 5% heat-inactivated fetal bovine serum (Invitrogen), 2 mM L-glutamine, 100 U/mL penicillin, 0.1 mg/mL streptomycin, 10 μg/mL insulin, 10 nM hydrocortisone, 10 ng/mL Gly-His-Lys acetate, 1 mU/mL TSH, 5 μg/mL transferrin at 37° C. and 5% CO2. For iodide uptake assays, 200 μL of FRTL5 cells with density of 250,000 cells/mL were dispensed in each well of clear flat-bottomed 96-well polystyrene microplates (Costar 3628) using the Multidrop 384 (ThermoFisher Scientific), and further cultured until confluence reached 80-90% (3-4 days).
The culture medium of FRTL5 monolayer cells at 80-90% confluence was replaced by uptake buffer (20° C.) via continuous aspiration/dispense cycle (600 μL) using a 96-needle head plate washer PW 384 (Tecan). The 96-needle head was set to a vertical position such that 80 μL of fresh uptake buffer remained in each well at the end of the cycle. The samples (10 μL each) from the daughter plate were transferred all at once to the assay plate using the 96-tip head pipettor Liquidator 96 (Mettler Toledo). Immediately after, 10 μL of a NaI solution at 100 μM was added to each well of the assay plate using the Liquidator 96. The assay plate was left to stand in the dark at 20±1° C. for 60 min. The assay plate was then washed with cold (4° C.) uptake buffer using the PW 384 plate washer and residual supernatant was immediately discarded by inverting the assay plate on absorbent paper.
Sodium iodide standards (S1 to S7) and water (S0) were distributed in duplicate (100 μL each) in the first and last column of the assay plate. Water (100 μL) was added to the columns with the Multidrop 384. 100 μL of the ammonium cerium (IV) sulfate solution (10.5 mM) was distributed into the columns, followed by 100 μL of the sodium arsenite (III) solution (24 mM) using the Multidrop 384. The assay plate was left to stand at 20±1° C. for 30 min. The absorbance at 420 nm (Abs420) was immediately recorded on a SpectraMax Plus 384 (Molecular Devices). A calibration curve was prepared for each plate by plotting the logarithmic conversion of the means of Abs420 (n=2) vs iodide standard concentrations (S0 to S7). The iodide concentrations in the samples were determined after linear regression of the calibration curve.

The mark [2] stands for this setting: Table 3, variations at R2, averaged from three or four independent experiments.
Where [3] appears, read: Table 5, variations at Y, R1, R3, R4, R5, averaged from two to four independent experiments.
The mark [4] stands for this setting: Table 1, variations at R1, averaged from three or four independent experiments.
[5] abbreviates: Table 4, variations at X, R3, R4, averaged from three or four independent experiments.
The mark [6] stands for this setting: Table 2, variations at R5, averaged from three or four independent experiments.

In the case of `CCCCCC1=C(C(=O)OCc2ccc(OC)cc2)C(c2ccccc2)NC(=O)N1` (stereo not drawn) [Compound 42, 4-Methoxybenzyl 2-oxo-6-pentyl-4-phenyl-1,2,3,4-tetrahydropyrimidine-5-carboxylate], the half-maximal inhibitory concentration (IC50) in series [1] (setting [2]) worked out at 350 nM.

Turning to `COc1cccc(COC(=O)C2=C(C)NC(=O)NC2c2ccco2)c1` (stereo not drawn) [Compound 55, 3-methoxybenzyl 4-(furan-2-yl)-6-methyl-2-oxo-1,2,3,4-tetrahydropyrimidine-5-carboxylate], the melting point was 165 to 166 °C. Further, the IC50 in series [1] (setting [3]) was 0.57 nM.

Regarding `[O-][Cl+3]([O-])([O-])O` [Sodium perchlorate, reference compound], in series [1] (assay control, read-out: IC50, iodide entrapment in FRTL5 cells, assay control), the pIC50 is 7.00.

In turn, `COc1ccc(COC(=O)C2=C(C)NC(=O)NC2C2CC2)cc1` (stereo not drawn) [Compound 26, 4-Methoxybenzyl 4-cyclopropyl-6-methyl-2-oxo-1,2,3,4-tetrahydropyrimidine-5-carboxylate] registered a melting point of 158 to 160 °C. The IC50 in series [1] (setting [4]) was found to be 750 nM.

With `COc1ccc(COC(=O)C2=C(C)NC(=S)NC2c2ccccc2)cc1` (stereo not drawn) [Compound 52, 4-methoxybenzyl 6-methyl-4-phenyl-2-thioxo-1,2,3,4-tetrahydropyrimidine-5-carboxylate], the melting point fell in the range of 174 to 175 °C. In addition, in series [1] (setting [5]), the IC50 stood at 95 nM.

`COc1ccc(COC(=O)C2=C(C)NC(=O)NC2c2cccs2)cc1` (stereo not drawn) [Compound 30, 4-Methoxybenzyl 4-(thiophen-2-yl)-6-methyl-2-oxo-1,2,3,4-tetrahydropyrimidine-5-carboxylate] registered a melting point of 152 to 154 °C. Further, the IC50 in series [1] (setting [4]) came out at 50 nM.

Compound `COc1ccc(COC(=O)C2=C(C)NC(=O)NC2c2cccc(Cl)c2)cc1` (stereo not drawn) [Compound 22, 4-Methoxybenzyl 4-(3-chlorophenyl)-6-methyl-2-oxo-1,2,3,4-tetrahydropyrimidine-5-carboxylate] showed a melting point of 180 to 181 °C. The IC50 in series [1] (setting [4]) was determined as 100 nM.

Turning to `COc1cccc(COC(=O)C2=C(C)N(C)C(=O)N(C)C2c2ccco2)c1` (stereo not drawn) [Compound 57, 3-methoxybenzyl 4-(furan-2-yl)-1,3,6-trimethyl-2-oxo-1,2,3,4-tetrahydropyrimidine-5-carboxylate], the IC50 in series [1] (setting [3]) stood at 0.065 nM.

On to `COc1ccc(COC(=O)C2=C(C)NC(=O)NC2c2ccco2)cc1` (stereo not drawn) [Compound 27, 4-methoxybenzyl 4-(furan-2-yl)-6-methyl-2-oxo-1,2,3,4-tetrahydropyrimidine-5-carboxylate], for which the melting point lay in the range of 158 to 159 °C. The IC50 in series [1] (setting [4]) was determined as 3.2 nM.

On to `COc1ccc(COC(=O)C2=C(CNC(=O)c3ccccc3)NC(=O)NC2c2ccccc2)cc1` (stereo not drawn) [Compound 47, 4-Methoxybenzyl 2-oxo-6-(benzamidomethyl)-4-phenyl-1,2,3,4-tetrahydropyrimidine-5-carboxylate], for which the melting point was 213 to 216 °C. Further, in series [1] (setting [2]), the IC50 was 1200 nM.

On to `CC1=C(C(=O)OCc2ccc3c(c2)OCO3)C(c2ccccc2)NC(=O)N1` (stereo not drawn) [Compound 38, Benzo[d][1,3]dioxol-5-ylmethyl 6-methyl-2-oxo-4-phenyl-1,2,3,4-tetrahydropyrimidine-5-carboxylate], for which, in series [1] (setting [6]), the half-inhibitory concentration (IC50) was determined as 80 nM.

Consider `COc1ccc(COC(=O)C2=C(Cc3cccs3)NC(=O)NC2c2ccccc2)cc1` (stereo not drawn) [Compound 49, 4-Methoxybenzyl 2-oxo-4-phenyl-6-(thiophen-2-ylmethyl)-1,2,3,4-tetrahydropyrimidine-5-carboxylate], for which the IC50 in series [1] (setting [2]) was determined as 150 nM.

As for `COc1ccc(COC(=O)C2=C(C)N(C)C(=O)N(C)C2c2ccco2)cc1` (stereo not drawn) [Compound 54, 4-methoxybenzyl 4-(furan-2-yl)-1,3,6-trimethyl-2-oxo-1,2,3,4-tetrahydropyrimidine-5-carboxylate], the IC50 in series [1] (setting [3]) was 1.6 nM.

For the compound `COc1ccc(COC(=O)C2=C(C)N(C)C(=O)N(C)C2c2ccccc2)cc1` (stereo not drawn) [Compound 51, 4-Methoxybenzyl 1,3,6-trimethyl-2-oxo-4-phenyl-1,2,3,4-tetrahydropyrimidine-5-carboxylate], in series [1] (setting [5]), the IC50 came out at 65 nM.

Regarding `COc1ccc(COC(=O)C2=C(c3ccccc3)NC(=O)NC2c2ccccc2)cc1` (stereo not drawn) [Compound 44, 4-Methoxybenzyl 4,6-diphenyl-2-oxo-1,2,3,4-tetrahydropyrimidine-5-carboxylate], the half-maximal inhibitory concentration (IC50) in series [1] (setting [2]) came to 950 nM.

In the case of `COc1ccc(COC(=O)C2=C(COc3ccccc3)NC(=O)NC2c2ccccc2)cc1` (stereo not drawn) [Compound 46, 4-Methoxybenzyl 2-oxo-6-phenoxymethyl-4-phenyl-1,2,3,4-tetrahydropyrimidine-5-carboxylate], the IC50 in series [1] (setting [2]) is 500 nM.

As to `COc1cccc(COC(=O)C2=C(C)NC(=O)NC2c2ccccc2)c1` (stereo not drawn) [Compound 37, 3-Methoxybenzyl 6-methyl-2-oxo-4-phenyl-1,2,3,4-tetrahydropyrimidine-5-carboxylate], in series [1] (setting [6]), the IC50 is 50 nM.

Regarding `COc1ccc(COC(=O)C2=C(C3CCCCC3)NC(=O)NC2c2ccccc2)cc1` (stereo not drawn) [Compound 43, 4-Methoxybenzyl 6-cyclohexyl-2-oxo-4-phenyl-1,2,3,4-tetrahydropyrimidine-5-carboxylate], the IC50 in series [1] (setting [2]) came out at 850 nM.

With `CC1=C(C(=O)OCc2ccc3c(c2)OCO3)C(c2ccco2)N(C)C(=O)N1C` (stereo not drawn) [Compound 61, benzo[d][1,3]dioxol-5-ylmethyl 4-(furan-2-yl)-1,3,6-trimethyl-2-oxo-1,2,3,4-tetrahydropyrimidine-5-carboxylate], the IC50 in series [1] (setting [3]) came out at 0.85 nM.

`COc1ccc(COC(=O)C2=C(CC(C)C)NC(=O)NC2c2ccccc2)cc1` (stereo not drawn) [Compound 41, 4-Methoxybenzyl 2-oxo-6-isobutyl-4-phenyl-1,2,3,4-tetrahydropyrimidine-5-carboxylate]: in series [1] (setting [2]), the IC50 was 550 nM.

These data come from US20150175556A1, “DIHYDROPYRIMIDIN-2(1H)-ONES AND DIHYDROPYRIMIDIN-2(1H)-THIONES AS INHIBITORS OF SODIUM IODIDE SYMPORTER” (COMMISSARIAT A L'ENERGIE ATOMIQUE ET AUX ENERGIES …, priority 2012, published 2015).
